Reference: patent US20080293076A1, “Method to improve barrier function of cell-cell junctions” (UMC Utrecht Holding B.V., priority 2007, published 2008)

Test system: HUVEC
Assay: Endothelial permeability assay: electrical resistance across HUVEC monolayer (ECIS)
Type: cell-based, human
Settings: for decreased resistance in PDZ-GEF2-depleted cells: PDZ-GEF2 siRNA
Method: FIG. 2: PDZ-GEF2 knockdown in HUVECs leads to immature adherens junction and decreases endothelial resistance. Panel A: PDZ-GEF2 knockdown leads to immature VE-cadherin-based junctions in endothelial cells. HUVEC were transfected twice with scrambled, Epac1 or PDZ-GEFs siRNA and replated on glass coverslips. The cells were fixed when they formed a monolayer and immunostained with anti-VE-cadherin antibody. Panel B: Basal electrical resistance across HUVEC monolayers. Cells were treated as described in A and replated on electrodes. ECIS was measured continuously for 15 hours and the values reported are the final time points. […] The values reported correspond to the endothelial resistance measured 90 minutes after adding 007 to the culture media. * p<0.03 control mock vs 007; p<0.001 PDZ-GEF2.285 mock vs 007.
293T and A549 cells were transfected using FuGENE6 reagent for 48 hours (Roche Diagnostics Corporation). For siRNA, A549 cells and HUVEC were transfected using oligofectamine (Invitrogen) for 24 to 48 hours according to the manufacturer's instructions. In the case of the HUVEC, transfection was repeated after 24 hours. Samples were analyzed 48 hours after the second round of transfection. Oligos sequences (Dharmacon): PDZ-GEF2 (285: GGATCCAACTTATATAGAA) (SEQ ID NO:______); (289: GACACGGATTGTATTATTA) (SEQ ID NO:______); *Epac1 (GCACCTA CGTCTGCAACAA) (SEQ ID NO:______) and (CCATCATCCTGCGAGAAGA) (SEQ ID NO:______). 8-pCPT-2′O-Me-cAMP/8-pCPT -2′-OMe-cAMP (Biolog) was used at a final concentration of 100 μM. Quantification of the PDZ-GEF2 knockdown was performed using Scion Image (Scion Corporation).
To assess endothelial permeability, we measured electrical resistance continuously across endothelial cell monolayer using the methodology known as “Electric Cell-Substrate Impedance Sensing” (ECIS).^[21] Briefly, HUVEC were grown to confluence on small gold electrodes and ECIS was subsequently monitored for up to 15 hours. Data was analyzed using the Applied Biophysics software.

[1] = HUVEC, 100 μM, 30-minute stimulation

CO[C@@H]1[C@@H]2OP(=O)(O)OC[C@H]2O[C@H]1n1c(Sc2ccc(Cl)cc2)nc2c(N)ncnc21 [8-pCPT-2′-OMe-cAMP]
endothelial resistance in PDZ-GEF2 knockdown HUVEC (90 minutes after adding 007, PDZ-GEF2.285, p<0.001 mock vs 007): rescues the PDZ-GEF2 knockdown phenotype | endothelial resistance in control HUVEC (90 minutes after adding 007 to the culture media, p<0.03 mock vs 007): increases endothelial resistance | electrical resistance in Epac1 siRNA cells (HUVEC transfected with Epac1 siRNA, 100 μM): minimal effect | electrical resistance in scrambled siRNA cells [1]: increased resistance | decreased resistance in PDZ-GEF2-depleted cells [1]: completely rescued | decreased resistance in PDZ-GEF2-depleted cells (HUVEC, 100 μM, 30-minute stimulation, listed as 8-pCPT-2′OMe-cAMP): rescued
